How the values were obtained:
[1] = test system: wild type, ku80, mre11-2 and ku80mre11-2 mutant seedlings; experiment: Assays for sensitivity to bleomycin and methyl methane sulfonate (MMS); format: in vivo, Arabidopsis thaliana; conditions: ku80mre11-2 double mutant, 0.02, 0.05 μg/ml bleomycin or 0.005%, 0.01% MMS; for fresh weight of double mutant plants in comparison with wild type and each of the single mutants: 10-days-old plate-grown plants; for growth phenotype of double mutant compared with each of the single mutants: scored 2 weeks after germination
Method: Seeds of wild type, ku80, mre11-2 and ku80mre11-2 mutants were surface-sterilized as described (Weijers et al. 2001) and germinated on solid % MS medium without additions or containing 0.02 μg/ml or 0.05 μg/ml bleomycin (Sigma), 0.005% (v/v), 0.007% or 0.01% MMS (Sigma) and photographed after 2 weeks. After 10 days growth, the fresh weight (compared with controls) was determined by weighing the seedlings in batches of 20 in duplicate. Statistical analyses were performed using Prism version 5 (GraphPad Software Inc.).

[2] = test system: root tips of Arabidopsis seedlings (wild type, ku80, mre11-2, ku80mre11-2); experiment: Cell death assay (propidium iodide staining of root tips); format: in vivo, Arabidopsis thaliana; conditions: 0.05 μg/ml bleomycin for 1 day and 4 days; 4-d-old seedlings; more cell death in ku80mre11-2 double mutant
Method: Four days old seedlings on MS-agar plates were transferred to new MS-plates with DNA damaging agents. After one or four days treatments, the seedlings were placed in propidium iodide solution (PI, Sigma-Aldrich, 5 μg/ml in water) for 1 min and rinsed three times with water. Root tips were then transferred to slides in a drop of water and covered with a cover slip for observation under the fluorescence microscope.

COS(C)(=O)=O [MMS, Methyl Methane Sulfonate]
fresh weight of double mutant plants in comparison with wild type and each of the single mutants [1]: dramatically reduced | growth phenotype of double mutant compared with each of the single mutants [1]: grew more slowly and developed fewer true leaves

bleomycin
fresh weight of double mutant plants in comparison with wild type and each of the single mutants [1]: dramatically reduced | growth phenotype of double mutant compared with each of the single mutants [1]: grew more slowly and developed fewer true leaves | cell death in the root meristem (PI staining) [2]: caused cell death in the root meristem of both wild type and the mutants
